In patent publication US20120214847A1, “2-[1-PHENYL-5-HYDROXY-4a-SUBSTITUTED-HEXAHYDROCYCLOPENTA[F]INDAZOL-5-YL]ETHYL PHENYL DERIVATIVES AS GLUCOCORTICOID RECEPTOR LIGANDS” (Merck Sharp & Dohme Corp., priority 2009, published 2012):

Target: T1, human GR (Homo sapiens, UniProt P04150)
T1 construct: naturally expresses the human GR; endogenous in cells
T1 sequence (P04150 1-777): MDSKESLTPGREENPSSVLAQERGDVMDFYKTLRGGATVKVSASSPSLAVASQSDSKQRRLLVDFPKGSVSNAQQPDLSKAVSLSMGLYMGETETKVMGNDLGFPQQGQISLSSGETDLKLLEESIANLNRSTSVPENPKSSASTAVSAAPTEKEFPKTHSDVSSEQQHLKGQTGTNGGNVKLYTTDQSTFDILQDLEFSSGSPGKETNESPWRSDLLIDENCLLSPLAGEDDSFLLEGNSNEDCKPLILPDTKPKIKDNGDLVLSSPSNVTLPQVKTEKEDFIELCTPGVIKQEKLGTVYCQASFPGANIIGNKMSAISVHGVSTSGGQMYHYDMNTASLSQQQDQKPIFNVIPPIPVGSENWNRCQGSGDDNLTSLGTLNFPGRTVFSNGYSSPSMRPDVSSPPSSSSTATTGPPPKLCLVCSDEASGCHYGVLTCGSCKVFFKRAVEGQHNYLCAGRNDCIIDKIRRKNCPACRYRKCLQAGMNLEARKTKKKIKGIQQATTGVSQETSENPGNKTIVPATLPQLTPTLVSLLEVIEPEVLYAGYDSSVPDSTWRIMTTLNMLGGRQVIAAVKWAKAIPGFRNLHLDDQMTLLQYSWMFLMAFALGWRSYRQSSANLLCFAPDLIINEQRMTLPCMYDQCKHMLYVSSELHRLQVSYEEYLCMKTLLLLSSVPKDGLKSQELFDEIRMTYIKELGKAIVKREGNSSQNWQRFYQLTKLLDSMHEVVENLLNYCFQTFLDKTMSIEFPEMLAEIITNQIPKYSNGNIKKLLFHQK
Assay: Transrepression assay (GITAR), TNFα-β-lactamase reporter in U937 cells
Type: cell-based
Settings: for EC50 / Transrepression U937 Cells GITAR Emax (%): U937 cells; for EC50: IP = inflection point; for Transrepression U937 Cells GITAR Emax (%) / Emax: activity repressed by 100 nM dexamethasone alone set as 100%; for Emax: U-937, U937 cells
Excerpt: Transrepression Assay (GITAR)
This assay assesses the ability of test compounds to control transcription from the TNFα-β-lactamase reporter gene in U937 cells, a human myelomonocytic leukemia cell line that naturally expresses the human GR. The assay measures compound dependent-repression of the TNFa promoter linked to a reporter gene.
The human U937 cells that had been stablely transfected with the TNF-a promoter driving ˜-lactamase are used for this assay. U937 cells contain an endogenous glucocorticoid receptor (GR). Cells are maintained in RPMI 1640 Growth medium (GibcoCat#11875-093) containing 25 mM HEPES, 10% FBS, 2 mM L-Glutamine, 1 mM Sodium pyruvate, 25 μg/ml Gentamicin (Gibed Cat#1571 0-064), 1:1000 2-Mercaptoethanol (Gibco Cat#21985-023) and 0.8 mg/ml G418 (Gibco Cat#10131-027). The density of the cells in the flask needs to be about 1×10^6-3×10^6/ml at the time of harvest. Usually, the cells are split to 1.2˜1.4×10^5/ml (1:10) 3 days prior to the assay. 50,000 cells/well are plated in 96 well black-walled plates the day of assay. Test compounds are added 10 J.lL/well, and cells are incubated at 37° C. for 30˜45 min. For assaying compounds, first dilute 1:10 in DMSO to make 1 mM, then further dilute 1:100 in medium to make 10× stock prior to adding to the cells. Add 50 ng/ml PMA (Sigma, cat#P8139) 10 μL/well to a final concentration 5 ng/ml, and 1 μg/ml LPS (Sigma, cat#L4130) 10 μL/well to a final concentration 100 ng/ml. Incubate cells at 370 C overnight for −18 hr. PMA is stored frozen as […] in DMSO. Dilute 1:10 in DMSO for a working stock of 10 μg/ml and store at −20° C. For assaying, dilute the 10 μg/ml working stock 1:200 in medium to make a 10× solution (50 ng/ml). Store frozen LPS at 1 mg/ml in PBS, dilute 1:1000 in medium to make 10×μg/ml) for the assay. Add 6× loading buffer (CCF2-AM) 20 μL/well, and incubate at room temperature for 70-90 min. […] The activity repressed by 100 nM dexamethasone alone is set as 100% activity.

SMILES	EC50 [nM]	Transrepression U937 Cells GITAR Emax (%)	Emax [%]
CC[C@]12Cc3cnn(-c4ccc(F)cc4)c3C=C1CC[C@@]2(O)CCc1ccccc1C(O)C(N)=O (stereo partly drawn) [Example 26, 2-(2-{2-[(4aS,5R)-4a-Ethyl-1-(4-fluorophenyl)-5-hydroxy-1,4,4a,5,6,7-hexahydrocyclopenta[f]indazol-5-yl]ethyl}phenyl)-2-hydroxyacetamide]	51	86	
CC[C@]12Cc3cnn(-c4cccc(F)c4)c3C=C1CC[C@@]2(O)CCc1ccccc1C(N)=O [Example 11, 2-{2-[(4aS,5R)-4a-Ethyl-1-(3-fluorophenyl)-5-hydroxy-1,4,4a,5,6,7-hexahydrocyclopenta[f]indazol-5-yl]ethyl}benzamide]	80		82
N#Cc1ccccc1CC[C@]1(O)CCC2=Cc3c(cnn3-c3cccnc3)C[C@@]21C1CC1 [Example 30, 2-{2-[(4aR,5R)-4a-Cyclopropyl-5-hydroxy-1-(pyridin-3-yl)-1,4,4a,5,6,7-hexahydrocyclopenta[f]indazol-5-yl]ethyl}benzonitrile]	178		63
CC[C@]12Cc3cnn(-c4ccccc4)c3C=C1CC[C@@]2(O)CC(O)c1ccccn1 (single isomer, unassigned) [Example 67b]	277	44	
CC[C@]12Cc3cnn(-c4ccc(F)cc4)c3C=C1CC[C@@]2(O)CCc1nccc(OC)c1C(F)C(N)=O (stereo partly drawn) [Example 65, 2-(2-{2-[(4aS,5R)-4a-Ethyl-1-(4-fluorophenyl)-5-hydroxy-1,4,4a,5,6,7-hexahydrocyclopenta[f]indazol-5-yl]ethyl}-4-methoxypyridin-3-yl)-2-fluoroacetamide]	195		63
CC[C@]12Cc3cnn(-c4ccc(F)cc4)c3C=C1CC[C@@]2(O)CCc1ccccc1S(=O)(=O)CC [Example 51, (4aS,5R)-4a-Ethyl-5-{2-[2-(ethylsulfonyl)phenyl]ethyl}-1-(4-fluorophenyl)-1,4,4a,5,6,7-hexahydrocyclopenta[f]indazol-5-ol]	65		83
NC(=O)c1cc(F)cnc1CC[C@]1(O)CCC2=Cc3c(cnn3-c3ccc(F)cc3)C[C@@]21C1CC1 [Example 4, 2-{2-[(4aR,5R)-4a-Cyclopropyl-1-(4-fluorophenyl)-5-hydroxy-1,4,4a,5,6,7-hexahydrocyclopenta[f]indazol-5-yl]ethyl}-5-fluoropyridine-3-carboxamide]	83		71
CC[C@]12Cc3cnn(-c4ccccc4)c3C=C1CC[C@@]2(O)CCc1ccccc1C(N)=O [Example 20, 2-{2-[(4aS,5R)-4a-Ethyl-5-hydroxy-1-phenyl-1,4,4a,5,6,7-hexahydrocyclopenta[f]indazol-5-yl]ethyl}benzamide]	28		86
NC(=O)Cc1c(F)cccc1CC[C@]1(O)CCC2=Cc3c(cnn3-c3ccc(F)cc3)C[C@@]21C1CC1 [Example 61, 2-(2-{2-[(4aR,5R)-4a-Cyclopropyl-1-(4-fluorophenyl)-5-hydroxy-1,4,4a,5,6,7-hexahydrocyclopenta[f]indazol-5-yl]ethyl}-6-fluorophenyl)acetamide]	16		72
CC[C@]12Cc3cnn(-c4ccccc4)c3C=C1CC[C@@]2(O)CCc1cccc(F)c1C#N [Example 15, 2-{2-[(4aS,5R)-4a-Ethyl-5-hydroxy-1-phenyl-1,4,4a,5,6,7-hexahydrocyclopenta[f]indazol-5-yl]ethyl}-6-fluorobenzonitrile]	114		89
CC[C@]12Cc3cnn(-c4ccc(F)cc4)c3C=C1CC[C@@]2(O)CCc1ccccc1CCC(N)=O [Example 22, 3-(2-{2-[(4aS,5R)-4a-Ethyl-1-(4-fluorophenyl)-5-hydroxy-1,4,4a,5,6,7-hexahydrocyclopenta[f]indazol-5-yl]ethyl}phenyl)propanamide]	148		89
